# Assay results published in paper PMC9312238, “Novel Organoselenium Redox Modulators with Potential Anticancer, Antimicrobial, and Antioxidant Activities” (Antioxidants, 2022).
# Read-outs that look alike come from different tables or passages of the source.
# What was measured:
# Escherichia coli = assay: Agar diffusion assay, E. coli; assay type: cell-based; set-up: E. coli A% (activity index): concentration or dose not given beside the values; settings: for zone of inhibition at 20 µM: Escherichia coli, read-out: E. coli IZD (mm); for E. coli A% (activity index): zone of test compound / zone of standard (ampicillin) x 100
# [1] = DPPH radical scavenging bioassay; assay type: biochemical; settings: for radical scavenging activity, DPPH assay: compound 1 mM in MeOH, read after 0.5 h at 517 nm; for IC50: concentration decreasing absorbance by 50%
# Text: The antioxidant activity was estimated by ABTS and DPPH bioassays, according to the reported literature method. More details are in the Supplementary Materials.
# Recently, OSe compounds were thoroughly used as redox modulators to control many complicated diseases (e.g., cancer and neurodegenerative diseases). The DPPH and ABTS bioassays were extensively used as rapid tools for estimating the antioxidant potency of OSe compounds [50, 51]. Ascorbic acid was used as a standard control, and the antioxidant potency was measured by the ability of the compounds to decolorize the characteristic colors of the ABTS^. and DPPH^. radicals by following the colorimetric decline in absorbance at 734 and 517 nm, respectively (Figure 2).
# Figure 2 Evaluation of the antioxidant properties of the OSe compounds employing the ABTS and DPPH assays. All measurements are mean ± SD. In the DPPH assay: absorbance was read after 0.5 h of mixing […] of DPPH with […] of OSe compounds (1 mM, MeOH) at 517 nm. In the ABTS assay: […] of each OSe compound (1 mM, phosphate-buffered methanol) was mixed with the ABTS solution (60 mM), and absorbance was monitored at 734 nm. […]
# 1.1.1. The antioxidant activity
# The hydrogen atom or electron donation ability of the corresponding compounds was measured by estimating the bleaching of the purple color of a methanolic solution of DPPH [29]. This spectrophotometric assay uses stable DPPH. reagent. The sample was prepared by adding […] of the OSe compounds (1 mM in methanol) to […] DPPH in methanol. After 30 min of incubation in the dark, the absorbance was read against a blank at 517 nm. Ascorbic acid (vitamin C) and ebselen were used as standard antioxi-dants (positive control). A blank sample was run without DPPH. A negative control sam-ple was run using methanol instead of the sample. The radical scavenging activity was calculated using the following equation:
# (§1) Inhibition%= (Ablank-Asample)/(Ablank)*100. (1)
# Staphylococcus aureus = assay: Agar diffusion assay, S. aureus; assay type: cell-based; set-up: S. aureus A% (activity index): concentration or dose not given beside the values; settings: for S. aureus A% (activity index): zone of test compound / zone of standard (ampicillin) x 100; for zone of inhibition at 20 µM: Staphylococcus aureus, read-out: S. aureus IZD (mm)
# Experimental: The antimicrobial activities of the OSe compounds were evaluated against C. albicans yeast, as well as E. coli and S. bacteria, employing the agar well diffusion assay. Furthermore, the MICs (in µM) were determined by the microdilution method according to the reported protocol. More details are in the Supporting Information.
# Compounds were evaluated for their antimicrobial activity against the Gram-negative bacteria Escherichia coli (E. coli) and the Gram-positive bacteria Staphylococcus aureus (S. aureus), as well as the Candida albicans (C. albicans) fungal strain, using the agar diffusion assay. Ampicillin and clotrimazole were used as standards. Indeed, the antimicrobial properties of the OSe compounds were also obtained from the activity index percentage (A%) according to Equation (2). (2) A%=Zone of inhibition by test compound diametre/Zone of inhibition by standard diametre×100 . […]
# 1.1.1. The antimicrobial activity
# The antimicrobial activities of the OSe compounds were evaluated against C. albicans yeast as well as E. coli gram-negative and S. aureus gram-positive bacteria employing the agar well diffusion assay. Briefly, a concentration of 1 mM was prepared for each compound by dissolving in DMSO. Paper discs of standard size […] were steri-lized in an autoclave and soaked in 20 µL of the test compounds, and placed in the Petri dishes, which in turn contain a nutrient media (agar 20 g, peptone 5 g, and beef extract 3 g) seeded with the dedicated strain. Incubation lasted for 24 h at 36
# Furthermore, the MICs (in µM) were determined by the microdilution method according to the reported protocol. […]
# as §1
# MCF-7 cells = assay: cells; assay type: cell-based, human; settings: for IC50: MTT, 24 h incubation, MCF-7 cells, read-out: MCF7 IC50; for MCF7 TI (IC50 WI-38 / IC50 MCF-7): therapeutic index, ratio of WI-38 IC50 to MCF-7 IC50
# Experimental: (§2) Cells were obtained from the ATCC Company (VACSERA), Cairo, Egypt. MTT assay were performed according to the literature method. More details are in the Supporting Information.
# (§3) Recently, OSe compounds gained much attention as possible drug candidates due to their various pharmacological properties. […] Therefore, the anticancer attributes of the newly prepared OSe compounds were estimated using the MTT assay against MCF-7 and HepG2 and compared with their respective cytotoxicity in WI-38 primary cells. The anthracycline drug doxorubicin was used as the standard. […] Moreover, the therapeutic index (TI) was also calculated (according to Equation (1)), which is considered a measure of the selectivity and safety of the synthesized compounds. (1) TI=IC50 for the normal WI38 cells/IC50 for the cancer cells […]
# (§4) 1.1. The biological assays
# (§5) 1.1.1. The anticancer activity
# (§6) The breast adenocarcinoma (MCF-7), Hepatocellular carcinoma (HEPG-2), and nor-mal fibroblast (WI-38) cells were obtained from ATCC via Holding company for biological products and vaccines (VACSERA), Cairo, Egypt.
# (§7) DMSO, and fetal bovine serum was obtained from Sigma Aldrich. Dulbecco’s modified Eagle’s medium was used as the culture medium for the cells, and the cytotoxicity was evaluated using the reported MTT assay. Doxorubicin was used as the positive reference, and the IC50 values were obtained from the corresponding dose-response curve.
# (§8) This colorimetric assay is based on converting the yellow tetrazolium bromide (MTT) to a purple formazan derivative by mitochondrial succinate dehydrogenase in viable cells. […]
# (§9) added were 100 units/ml penicillin and 100µg/ml streptomycin at 37 C in a 5% Co2 incu-bator. The cell lines were seeded in a 96-well plate at a density of 1.0x10^4 cells/well. at 37 C for 48 h under 5% Co2. After incubation, the cells were treated with different concentra-tions of compounds and incubated for 24 h. After 24 h of drug treatment, 20 µl of MTT solution at 5mg/ml was added and incubated for 4 h. Finally, dimethyl sulfoxide (DMSO) in the volume of 100 µl is added to each well to dissolve the purple formazan formed. The colorimetric assay is measured and recorded at an absorbance of 570 nm using a plate […]
# (§10) The percentage of the relative cell viability was calculated as (A570 of treated samples/A570 of the untreated sample) X 100. […]
# WI-38 cells = assay: cells; assay type: cell-based, human; settings: MTT, 24 h incubation, normal WI-38 cells, read-out: WI38 IC50
# Experimental: as §2, §3, §4, §5, §6, §7, §8, §9, §10
# [2] = inhibition zone diameter, six-mm disks soaked with 20 μM of compound
Compound,zone of inhibition at 20 µM (Escherichia coli; [2]) [mm],"radical scavenging activity, DPPH assay [1] [%]",S. aureus A% (activity index) (Staphylococcus aureus) [%],"IC50 (MCF-7 cells; Homo sapiens, MCF7) [µM]",MCF7 TI (IC50 WI-38 / IC50 MCF-7) (MCF-7 cells),IC50 (WI-38 cells; Homo sapiens) [µM],E. coli IZD (mm) (Escherichia coli; [2]),E. coli A% (activity index) (Escherichia coli) [%],IC50 [1] [µM],S. aureus IZD (mm) (Staphylococcus aureus; [2]),IC50 (MCF-7 cells) [µM],IC50 (WI-38 cells) [µM],zone of inhibition at 20 µM (Staphylococcus aureus; [2]) [mm]
"C[Se]c1ccc(NC(=O)CCC(=O)O)cc1 [Compound 16, 4-((4-(methylselanyl)phenyl)amino)-4-oxobutanoic acid]",10,67,43,29.5 ± 2.2,0.7,22.5 ± 1.9,–,–,–,–,–,–,–
2-((4-(2-(3-hydroxynaphthalen-1(4H)-ylidene)hydrazinyl)phenyl)selanyl)-N-phenylacetamide [Compound 9],–,93,91,–,12,–,20,87,20.64 ± 0.14,19,3.27 ± 0.2,39.3 ± 2.5,–
"O=C(C[Se]c1ccc(N2C(=O)CCC2=O)cc1)Nc1ccccc1 [Compound 14, 2-((4-(2,5-dioxopyrrolidin-1-yl)phenyl)selanyl)-N-phenylacetamide]",13,77,67,17.1 ± 1.4,3.6,62 ± 3.6,–,57,–,–,–,–,14
"CCOc1ccc(NC(=O)C[Se]c2ccc(N)cc2)cc1 [Compound 5, 2-((4-aminophenyl)selanyl)-N-(4-ethoxyphenyl)acetamide]",10,71,57,25.5 ± 2,4,> 100,–,44,–,–,–,–,12
"Nc1ccc([Se]CC(=O)Nc2ccccc2)cc1 [Compound 4, 2-((4-aminophenyl)selanyl)-N-phenylacetamide]",14,80,71,11.3 ± 0.8,4.6,52.3 ± 3,–,61,–,–,–,–,15
"Nc1ccc([Se]CC(=O)N[C@@H](Cc2c[nH]c3ccccc23)C(=O)O)cc1 [Compound 6, (2-((4-aminophenyl)selanyl)acetyl)tryptophan]",17,91,86,5.69 ± 0.4,5,28.4 ± 2.2,–,74,24.03 ± 0.23,–,–,–,18
"O=C(O)CCC(=O)Nc1ccc([Se]CC(=O)Nc2ccccc2)cc1 [Compound 11, 4-oxo-4-((4-((2-oxo-2-(phenylamino)ethyl)selanyl)phenyl)amino)butanoic acid]",12,76,62,21.2 ± 1.8,3.2,67.3 ± 3.9,–,52,–,–,–,–,13
"C[Se]c1ccc(NC(=O)C=CC(=O)O)cc1 [Compound 15, 4-((4-(methylselanyl)phenyl)amino)-4-oxobut-2-enoic acid]",15,87,71,7.03 ± 0.6,2.8,19.8 ± 1.5,–,65,–,–,–,–,15
